Columns and labels:
[1] = molecular target: T1, HCV genotype 1b (BK) NS3 modified enzyme with a R155K mutation (Hepatitis C virus genotype 1b, UniProt P26663, R1181K); test: HCV NS3 protease time-resolved fluorescence (TRF) assay, genotype 1b R155K; format: biochemical; conditions: Ki 1b R155K, genotype 1b (BK) NS3 R155K; single value
T1 construct: HCV genotype 1b (BK) NS3 modified enzyme
How it was run: (§1)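 IC50 values derive from 4-parameter fitting of TRF signal after a 6 h room-temperature cleavage of 25 nM peptide substrate by NS3/NS4A that had been pre-incubated 10 min with compound.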

[2] = molecular target: HCV NS3 protease genotype 3a (3A-1) (Hepatitis C virus genotype 3a, UniProt Q81258); test: HCV NS3 protease time-resolved fluorescence (TRF) assay, genotype 3a; format: biochemical; conditions: Ki 3a
How it was run: as §1

C=C[C@@H]1C[C@]1(NC(=O)[C@@H]1C[C@@H]2CN1C(=O)[C@H](C(C)(C)C)NC(=O)O[C@@H]1C[C@H]1CCCCCc1c(nc3ccccc3c1OCC1CCN(C)C1)O2)C(=O)NS(=O)(=O)C1(C)CC1 (stereo partly drawn) [Example 141, (1aR,5S,8S,10R,22aR)-5-tert-butyl-N-[(1R,2S)-2-ethenyl-1-{[(1-methylcyclopropyl)sulfonyl]carbamoyl}cyclopropyl]-17-[(1-methylpyrrolidin-3-yl)methoxy]-3,6-dioxo-1,1a,3,4,5,6,9,10,18,19,20,21,22,22a-tetradecahydro-8H-7,10-methanocyclopropa[18,19][1,10,3,6] dioxadiazacyclononadecino [11,12-b]quinoline-8-carboxamide]
Ki [1]: 0.066 nM
Ki [2]: 0.33 nM

C=C[C@@H]1C[C@]1(NC(=O)[C@@H]1C[C@@H]2CN1C(=O)[C@H](C(C)(C)C)NC(=O)O[C@@H]1C[C@H]1CCCCCc1c(nc3ccccc3c1OCC1CN(C(=O)OC(C)(C)C)C1)O2)C(=O)NS(=O)(=O)C1(C)CC1 [Example 142, tert-butyl 3-({[(1aR,5S,8S,10R, 22aR)-5-tert-butyl-8-{[(1R,2S)-2-ethenyl-1-{[(1-methylcyclopropyl)sulfonyl]carbamoyl}cyclopropyl]carbamoyl}-3,6-dioxo-1,1a,3,4,5,6,9,10,18,19,20,21,22,22a-tetradeca hydro-8H-7,10-methanocyclopropa[18,19][1,10,3,6]dioxadiazacyclononadecino [11,12-b]quinolin-17-yl]oxy}methyl) azetidine-1-carboxylate]
Ki [1]: 0.7 nM
Ki [2]: 15 nM

C=C[C@@H]1C[C@]1(NC(=O)[C@@H]1C[C@@H]2CN1C(=O)[C@H](C(C)(C)C)NC(=O)O[C@@H]1C[C@H]1CCCCCc1c(nc3c(OC)cccc3c1OCCCN1CCCC1)O2)C(=O)NS(=O)(=O)C1(C)CC1 [Example 143, (1aR,5S,8S,10R,22aR)-5-tert-butyl-N-[(1R,2S)-2-ethenyl-1-{[(1-methylcyclopropyl)sulfonyl]carbamoyl}cyclopropyl]-13-methoxy-3,6-dioxo-17-[3-(pyrrolidin-1-yl)propoxy]-1,1a,3,4,5,6,9,10,18,19,20,21,22,22a-tetradecahydro-8H-7,10-methanocyclopropa[18,19][1,10,3,6]dioxadiazacyclononadecino[11,12-b]quinoline-8-carboxamide]
Ki [1]: 0.059 nM
Ki [2]: 0.64 nM

C=C[C@@H]1C[C@]1(NC(=O)[C@@H]1C[C@@H]2CN1C(=O)[C@H](C(C)(C)C)NC(=O)O[C@@H]1C[C@H]1CCCCCc1c(nc3c(OC)cccc3c1OCCCn1ccnc1)O2)C(=O)NS(=O)(=O)C1(C)CC1 [Example 144, (1aR,5S,8S,10R,22aR)-5-tert-butyl-N-[(1R,2S)-2-ethenyl-1-{[(1-methylcyclopropyl)sulfonyl]carbamoyl}cyclopropyl]-17-[3-(1H-imidazol-1-yl)propoxy]-13-methoxy-3,6-dioxo-1,1a,3,4,5,6,9,10,18,19,20,21,22,22a-tetradecahydro-8H-7,10-methanocyclopropa[18,19][1,10,3,6]dioxadiazacyclononadecino[11,12-b]quinoline-8-carboxamide]
Ki [1]: 0.61 nM
Ki [2]: 6.2 nM

C=C[C@@H]1C[C@]1(NC(=O)[C@@H]1C[C@@H]2CN1C(=O)[C@H](C(C)(C)C)NC(=O)O[C@@H]1C[C@H]1CCCCCc1c(nc3cc(C)ccc3c1OCCCNC1CC1)O2)C(=O)NS(=O)(=O)C1(C)CC1 [Example 145, (1aR,5S,8S,10R,22aR)-5-tert-butyl-17-[3-(cyclopropylamino)propoxy]-N-[(1R,2S)-2-ethenyl-1-{[(1-methylcyclopropyl)sulfonyl]carbamoyl}cyclopropyl]-14-methyl-3,6-dioxo-1,1a,3,4,5,6,9,10,18,19,20,21,22,22a-tetradecahydro-8H-7,10-methanocyclopropa[18,19][1,10,3,6]dioxadiazacyclononadecino[11,12-b]quinoline-8-carboxamide]
Ki [1]: 0.079 nM
Ki [2]: 1.2 nM

C=C[C@@H]1C[C@]1(NC(=O)[C@@H]1C[C@@H]2CN1C(=O)[C@H](C(C)(C)C)NC(=O)O[C@@H]1C[C@H]1CCCCCc1c(nc3cc(C)ccc3c1OCCCN1CCCC1)O2)C(=O)NS(=O)(=O)C1(C)CC1 [Example 146, (1aR,5S,8S,10R,22aR)-5-tert-butyl-N-[(1R,2S)-2-ethenyl-1-{[(1-methylcyclopropyl)sulfonyl]carbamoyl}cyclopropyl]-14-methyl-3,6-dioxo-17-[3-(pyrrolidin-1-yl)propoxy]-1,1a,3,4,5,6,9,10,18, 19,20,21,22,22a-tetradecahydro-8H-7,10-methano cyclopropa[18,19][1,10,3,6] dioxadiazacyclonona decino[11,12-b]quinoline-8-carboxamide]
Ki [1]: 0.054 nM
Ki [2]: 0.68 nM

C=C[C@@H]1C[C@]1(NC(=O)[C@@H]1C[C@@H]2CN1C(=O)[C@H](C(C)(C)C)NC(=O)O[C@@H]1C[C@H]1CCCCCc1c(nc3cc(C)ccc3c1OCCCN1CCOCC1)O2)C(=O)NS(=O)(=O)C1(C)CC1 [Example 147, (1aR,S,8S,10R,22aR)-5-tert-butyl-N-[(1R,2S)-2-ethenyl-1-{[(1-methylcyclopropyl)sulfonyl]carbamoyl}cyclopropyl]-14-methyl-17-[3-(morpholin-4-yl)propoxy]-3,6-dioxo-1,1a,3,4,5,6,9, 10,18,19,20,21,22,22a-tetradecahydro-8H-7,10-methanocyclopropa[18,19] [1,10,3,6]dioxadiaza cyclononadecino[11,12-b] quinoline-8-carboxamide]
Ki [1]: 0.26 nM
Ki [2]: 2.2 nM

C=C[C@@H]1C[C@]1(NC(=O)[C@@H]1C[C@@H]2CN1C(=O)[C@H](C(C)(C)C)NC(=O)O[C@@H]1C[C@H]1CCCCCc1c(nc3cc(C)ccc3c1OCCCN1CC[C@H](N(C)C)C1)O2)C(=O)NS(=O)(=O)C1(C)CC1 [Example 148, (1aR,5S,8S,10R,22aR)-5-tert-butyl-17-{3-[(3S)-3-(dimethylamino)pyrrolidin-1-yl]propoxy}-N-[(1R,2S)-2-ethenyl-1-{[(1-methylcyclopropyl)ulfonyl]carbamoyl}cyclopropyl]-14-methyl-3,6-dioxo-1,1a,3,4,5,6,9,10,18,19,20,21,22,22a-tetradecahydro-8H-7,10-methanocyclopropa[18,19] [1,10,3,6]dioxadiazacyclononadecino [11,12-b]quinoline-8-carboxamide]
Ki [1]: 0.065 nM
Ki [2]: 0.74 nM

C=C[C@@H]1C[C@]1(NC(=O)[C@@H]1C[C@@H]2CN1C(=O)[C@H](C(C)(C)C)NC(=O)O[C@@H]1C[C@H]1CCCCCc1c(nc3cc(C)ccc3c1OCCCNC)O2)C(=O)NS(=O)(=O)C1(C)CC1 [Example 149, (1aR,5S,8S,10R,22aR)-5-tert-butyl-N-[(1R,2S)-2-ethenyl-1-{[(1-methylcyclopropyl)sulfonyl]carbamoyl}cyclopropyl]-14-methyl-17-[3-(methylamino)propoxy]-3,6-dioxo-1,1a,3,4,5,6,9,10,18,19, 20,21,22,22a-tetradecahydro-8H-7,10-methanocyclopropa[1,19] [1,10,3,6]dioxadiazacyclonona decino[11,12-b]quinoline-8-carboxamide]
Ki [1]: 0.041 nM
Ki [2]: 0.74 nM
